The values below are quoted from earlier work in patent publication US20210319872A1, “DRUG AND DEVICE COMBINATION PRODUCTS WITH IMPROVED SAFETY AND EFFICACY PROFILES” (priority 2016, published 2021).

Read-outs that look alike come from different tables or passages of the source. Where only a bound is given, the exact number is not on record here.

As for `Cc1nnc2n1-c1ccc(Cl)cc1C(c1ccccc1)=NC2` [Xanax (alprazolam)], for the setting “in vivo”, the Cognitive disorder result is “Neurologic: Cognitive disorder (28.8%), Confusion (1.5% to”; the Confusion result is listed as “Neurologic: Cognitive disorder (28.8%), Confusion (1.5% to”; the Constipation result is on record as “Gastrointestinal: Constipation (8.1% to 26.2%), Reduced salivation”; the Decrease in appetite result is given as “Endocrine metabolic: Decrease in appetite (7.3% to 27.8%),”. Besides, under “in vivo”, the Fatigue result is reported as “Other: Fatigue (13.9% to 48.6%)”; the Increased appetite entry was “Increased appetite (7% to 32.7%), Weight increase (2.7% to 27.2%)”; the Memory impairment is given as 40.1%), Lightheadedness (20.8%), Memory impairment (15.4% to; the Reduced libido entry is on record as “Reproductive: Reduced libido (6% to 14.4%)”. For the same molecule, under “in vivo”, the Reduced salivation result is “(32.8%), Xerostomia (10.2% to 14.7%)”; the Sedated was 33.1%), Sedated (45.2%), Somnolence (23% to 76.8%); the “Serious side effect, Dermatologic” value is “Dermatologic: Stevens-Johnson syndrome”; the Somnolence was 33.1%), Sedated (45.2%), Somnolence (23% to 76.8%). Moreover, under “in vivo”, the Weight increase result was “Increased appetite (7% to 32.7%), Weight increase (2.7% to 27.2%)” and the Xerostomia result is given as “(32.8%), Xerostomia (10.2% to 14.7%)”.
Turning to `CC(C)NCC(O)COc1ccc(COCCOC(C)C)cc1` (stereo not shown) [Bisoprolol (Zebeta)], under “in vivo”, the Diarrhea entry is recorded as “Gastrointestinal: Diarrhea (2.6% to 3.5%)”; the Fatigue entry was “Other: Fatigue (6.6% to 8.2%)”; the Headache result is on record as “Neurologic: Headache (8.8% to 10.9%)”; the Rhinitis entry is reported as “Respiratory: Rhinitis (2.9% to 4%), Upper respiratory infection”. Further, the Upper respiratory infection entry (in vivo) is reported as “(4.8% to 5%.)”.
In the case of `COc1ccccc1Oc1c(NS(=O)(=O)c2ccc(C(C)(C)C)cc2)nc(-c2ncccn2)nc1OCCO` [Tracleer], where the note is “in vivo”, the Decreased hemoglobin result was “Hematologic: Decreased hemoglobin (6%)”, the “Decreased hemoglobin (Severe)” value is “Hematologic: Decreased hemoglobin (Severe) (3%)”, the Headache entry is recorded as “Neurologic: Headache (up to 24%)” and the Hypotension is reported as 7%. Besides, under “in vivo”, the “Increased liver aminotransferase level” value was no more than 11% and the Palpitations is 5%. Also, the “Serious side effect, Other” value (listed without frequency) is given as “Other: Angioedema”.
As for `COCCOC(=O)C1=C(C)NC(C)=C(C(=O)OC(C)C)C1c1cccc([N+](=O)[O-])c1` (stereo not shown) [Nimodipine (Nimotop)], under “in vivo”, the Congestive heart failure entry was “Cardiovascular: Congestive heart failure (less than 1%)”; the Diarrhea entry is on record as “Gastrointestinal: Diarrhea (up to 4.2%), Nausea (0.6% to 1.4%)”; the Disseminated intravascular coagulation result is listed as “(less than 1%), Hematoma (less than 1%)”; the Gastrointestinal hemorrhage entry is reported as “Gastrointestinal: Gastrointestinal hemorrhage (less than 1%)”. Moreover, where the note is “in vivo”, the Headache entry is “Neurologic: Headache (up to 4.1%)”; the Hematoma result is listed as “(less than 1%), Hematoma (less than 1%)”; the Hypotension result is recorded as “Cardiovascular: Hypotension (up to 8.1%)”; the Nausea result is on record as “Gastrointestinal: Diarrhea (up to 4.2%), Nausea (0.6% to 1.4%)”. Further, the “Serious side effects, listed without incidence or only as rare” value (in vivo) is “Hematologic: Bleeding, Disseminated intravascular coagulation”.
Regarding `CN1CC[C@]23c4c5ccc(O)c4O[C@H]2C(=O)CC[C@@]3(O)[C@H]1C5` [Oxymorphone, reference compound], under “in vivo”, the Abdominal pain entry is on record as “Gastrointestinal: Abdominal pain (1% to less than 10%),”; the Bowel obstruction result is “Gastrointestinal: Bowel obstruction (less than 1%)”; the Constipation entry is on record as “Constipation (4.1% to 27.6%), Nausea (2.9% to 33.1%), Vomiting”; the Fatigue result is “Other: Fatigue (1% to less than 10%), Fever (1% to 14.2%)”. Besides, under “in vivo”, the Fever result is given as “Other: Fatigue (1% to less than 10%), Fever (1% to 14.2%)”; the Headache is recorded as 17%), Headache (4% to 12%), Somnolence (2% to 19%); the Hypotension result is “Cardiovascular: Hypotension (less than 10%)”; the Hypoxia is recorded as less than 10%). Also, for the setting “in vivo”, the Nausea entry is “Constipation (4.1% to 27.6%), Nausea (2.9% to 33.1%), Vomiting”; the Pruritus entry was “Dermatologic: Pruritus (less than or equal to 15.2%), Sweating”; the “Serious side effect, Neurologic” value is given as “Neurologic: Coma”; the “Serious side effect, Respiratory” value was “Respiratory: Respiratory depression”. Besides, under “in vivo”, the Somnolence is 17%), Headache (4% to 12%), Somnolence (2% to 19%); the Sweating symptom entry is recorded as “symptom (1% to less than 10%)”; the Vomiting entry is given as “(less than or equal to 15.6%), Xerostomia (1% to less than 10%)”; the Xerostomia result is “(less than or equal to 15.6%), Xerostomia (1% to less than 10%)”.
As to `N=C(N)NC(=O)c1nc(Cl)c(N)nc1N` [Amiloride (Midamor)], under “in vivo”, the Asthenia result is “Musculoskeletal: Asthenia (greater than 1% to less than 3%),”; the “Cardiac dysrhythmia (incidence)” value is listed as “Cardiovascular: Cardiac dysrhythmia (1% or less), Palpitations (1%”; the “Cough (incidence)” value is recorded as “Respiratory: Cough (greater than 1% to less than 3%), Dyspnea”; the Cramp result is on record as “Cramp (greater than 1% to less than 3%)”. In addition, where the note is “in vivo”, the Diarrhea entry was “Gastrointestinal: Diarrhea (3% to 8%), Loss of appetite (3% to 8%),”; the Dizziness result was “Neurologic: Dizziness (greater than 1% to less than 3%), Headache”; the “Dyspnea (incidence)” value is “(greater than 1% to less than 3%)”; the “Encephalopathy (incidence)” value is given as “Neurologic: Encephalopathy (greater than 1% to less than 3%)”. Moreover, where the note is “in vivo”, the “Headache (incidence)” value was “(3% to 8%)”; the “Hyperkalemia (incidence)” value is reported as “Endocrine metabolic: Hyperkalemia (10%)”; the Nausea entry is “Nausea (3% to 8%), Vomiting (3% to 8%)”; the “Palpitations (incidence)” value was “Cardiovascular: Cardiac dysrhythmia (1% or less), Palpitations (1%”. Further, under “in vivo”, the “Raised intraocular pressure (incidence)” value is recorded as “Ophthalmic: Raised intraocular pressure (1% or less)”; the Rash entry was “Dermatologic: Rash (1% or less)”; the “Serious side effect listed (incidence not given)” value is recorded as “Hematologic: Aplastic anemia, Neutropenia”; the Vomiting entry is listed as “Nausea (3% to 8%), Vomiting (3% to 8%)”.
For `Cl.O=C1[C@@H]2[C@H]3CC[C@H](C3)[C@@H]2C(=O)N1C[C@@H]1CCCC[C@H]1CN1CCN(c2nsc3ccccc23)CC1` [Latuda], for the setting “in vivo”, the Akathisia result is reported as “Neurologic: Akathisia (5.6% to 22%), Extrapyramidal disease”; the Anxiety entry is “Psychiatric: Anxiety (4% to 5%)”; the Cerebrovascular accident result is “Neurologic: Cerebrovascular accident (0.1% to 1%), Seizure (less”; the Diarrhea entry was “Gastrointestinal: Diarrhea (3% to 5%), Nausea (10% to 17%),”. Moreover, for the setting “in vivo”, the Nausea result was “Gastrointestinal: Diarrhea (3% to 5%), Nausea (10% to 17%),”; the Orthostatic hypotension entry is reported as “Cardiovascular: Orthostatic hypotension (0.3% to 2.1%), Syncope”; the “Serious side effect, Hematologic” value is “Hematologic: Agranulocytosis”; the “Serious side effect, Other” value is listed as “Other: Neuroleptic malignant syndrome”. Further, where the note is “in vivo”, the Serum creatinine raised result is recorded as “Renal: Serum creatinine raised (2% to 4%)”, the Suicidal thoughts entry was “Psychiatric: Suicidal thoughts (0.4% to 1.1%)”, the Syncope entry is listed as “(0.1%)” and the Vomiting entry is reported as “Vomiting (2% to 8%)”.
